The test system of this data set is normal, human-derived epidermal keratinocytes. Briefly: EPIDERM Skin Model In Vitro Toxicity Testing System, dermal irritancy potential (ET-50 test). As to conditions: time at which percent viability equals 50%. The method, then: Applicants' jojobate carboxylate/jojoba alcohol/glycol formulation of Example I was evaluated by MatTek Corporation using an EPIDERM Skin Model In Vitro Toxicity Testing System.
The percentage of viable cells was then determined for each test sample using a spectrophotometric analysis at 570 nm. Thereafter, a semi-log plot of the percent viabilities, on the linear Y axis, versus the dosing times, on the log X axis. By interpolation, the time which the percent viability would equal 50%, i.e. the ET-50 time, was determined.

`CCCCCCCCCCCCOS(=O)(=O)[O-].[Na+]` [Sodium Lauryl Sulfate]: the ET-50 time entry was “less than 1 hours”.
On to Triton X, for which the ET-50 time was determined as 3.7 h.

(Values after US20070286839A1, “COMPOSITION COMPRISING JOJOBA CARBOXYLATES IN COMBINATION WITH JOJOBA ALCOHOL AND COSMETIC FORMULATION COMPRISING SAME” (priority 2006, published 2007).)
